# Experimental data taken from ChEMBL document CHEMBL1150165, “Antineoplastic agents. 489. Isolation and structures of meliastatins 1-5 and related euphane triterpenes from the tree Melia dubia” (2002).
# Assays:
# Type in all cases: functional
# DU-145 = experiment: Growth inhibition of human DU145 cells
# KM-20L2 = experiment: Growth inhibition of human KM20L2 cells
# NCI-H460 = experiment: Growth inhibition of human NCI-H460 cells
# MCF7 = experiment: Growth inhibition of human MCF7 cells
# SF-268 = experiment: Growth inhibition of human SF268 cells
# P388 = experiment: Growth inhibition of mouse P388 cells; details: read-out: ED50 (the source's name)
# BXPC-3 = experiment: Growth inhibition of human BxPC3 cells
SMILES,GI50 (DU-145) [µg/mL],GI50 (KM-20L2) [µg/mL],GI50 (NCI-H460) [µg/mL],GI50 (MCF7) [µg/mL],GI50 (SF-268) [µg/mL],EC50 (P388) [µg/mL],GI50 (BXPC-3) [µg/mL]
C[C@H](C/C=C/C(C)(C)O)[C@@H]1[C@@H](O)C[C@]2(C)C3=CC[C@H]4C(C)(C)C(=O)CC[C@]4(C)[C@H]3CC[C@@]12C [MELIASTATIN 1],1.9,1.9,1.9,1.9,1.9,2.5,1.9
CC(C)=CCC[C@@H](C)[C@@H]1[C@@H](O)C[C@]2(C)C3=CC[C@H]4C(C)(C)[C@@H](O)CC[C@]4(C)[C@H]3CC[C@@]12C,–,–,–,–,–,2.5,–
CC(C)=CCC[C@@H](C)[C@@H]1[C@@H](O)C[C@]2(C)C3=CC[C@H]4C(C)(C)C(=O)CC[C@]4(C)[C@H]3CC[C@@]12C [KULINONE],3.6,3.6,3.6,3.6,3.6,4.6,3.61
O=c1[nH]cc(F)c(=O)[nH]1 [FLUOROURACIL],–,–,–,–,–,0.075,–
COC(=O)[C@H](C/C=C/C(C)(C)OO)[C@@H]1[C@@H](O)C[C@]2(C)C3=CC[C@H]4C(C)(C)C(=O)CC[C@]4(C)[C@H]3CC[C@@]12C [MELIASTATIN 3],–,–,–,–,–,3.1,–
C=C(C)C(O)CC[C@@H](C)[C@@H]1[C@@H](O)C[C@]2(C)C3=CC[C@H]4C(C)(C)C(=O)CC[C@]4(C)[C@H]3CC[C@@]12C (stereo not given in full) [MELIASTATIN 5],–,–,–,–,–,1.7,–
COC(=O)[C@H](CCC=C(C)C)[C@@H]1[C@@H](O)C[C@]2(C)C3=CC[C@H]4C(C)(C)C(=O)CC[C@]4(C)[C@H]3CC[C@@]12C [METHYL KULONATE],3.7,3.7,3.7,3.7,3.7,5.1,3.7
CC(C)=CCC[C@H]1C(=O)O[C@H]2C[C@]3(C)C4=CC[C@H]5C(C)(C)C(=O)CC[C@]5(C)[C@H]4CC[C@@]3(C)[C@@H]21 [KULACTONE],–,–,–,–,–,6.2,–
C=C(C)[C@@H](O)CC[C@@H](C(=O)OC)[C@@H]1[C@@H](O)C[C@]2(C)C3=CC[C@H]4C(C)(C)C(=O)CC[C@]4(C)[C@H]3CC[C@@]12C [MELIASTATIN 4],–,–,–,–,–,2,–
C=C(C)[C@@H]1CCC([C@@H]2[C@@H](O)C[C@]3(C)C4=CC[C@H]5C(C)(C)C(=O)CC[C@]5(C)[C@H]4CC[C@@]23C)C(=O)O1 (stereo not given in full) [DUBIONE B],–,–,–,–,–,20.5,–
COC(=O)[C@H](C/C=C/C(C)(C)O)[C@@H]1[C@@H](O)C[C@]2(C)C3=CC[C@H]4C(C)(C)C(=O)CC[C@]4(C)[C@H]3CC[C@@]12C [MELIASTATIN 2],6.3,6.3,6.3,6.3,6.3,5.6,6.3
